# In patent publication US20230167127A1, “COMPOUNDS AND THEIR USE IN THE TREATMENT OF BACTERIAL INFECTION” (Hoffmann-La Roche Inc., priority 2020, published 2023):
# Test system: Escherichia coli ATCC 25922
# Experiment: 50% growth inhibitory concentration (IC50) determination, Iso-Sensitest broth dilution
# Assay type: cell-based
# Settings: Escherichia coli, ATCC25922, 16 h, strain Escherichia coli ATCC 25922; 10-point broth dilution, optical density at 600 nm over 16 h; read-out: Escherichia coli growth inhibition IC50
# Procedure, shortened: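 Growth was tracked as optical density at 600 nm every 20 minutes for 16 h at 35±2° C. Compounds from DMSO stocks were serially diluted twofold over 10 points (e.g. 50–0.097 μM final) in Iso-Sensitest broth. Inhibition computed in log-phase growth to give IC50.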
row,Compound,IC50 [nM]
1,"CNC(=O)COc1cc(F)c2c(c1)CC(CNCCC1CN(c3ccc4c(n3)NC(=O)CO4)C(=O)O1)C2 (centres unmarked) [Example 69, 2-[[7-fluoro-2-[[2-[2-oxo-3-(3-oxo-4H-pyrido[3,2-b][1,4]oxazin-6-yl)-1,3-oxazolidin-5-yl]ethylamino]methyl]-2,3-dihydro-1H-inden-5-yl]oxy]-N-methylacetamide; formic acid]",123
2,"NCCOc1cc(Cl)c2c(c1)CC(CNCCC1CN(c3ccc4c(n3)NC(=O)CO4)C(=O)O1)C2 (centres unmarked) [Example 177, 6-[5-[2-[[6-(2-aminoethoxy)-4-chloro-2,3-dihydro-1H-inden-2-yl]methylamino]ethyl]-2-oxo-1,3-oxazolidin-3-yl]-4H-pyrido[3,2-b][1,4]oxazin-3-one]",< 97.7
3,"Cc1ncc(F)c2c1CC(CN1CCC3(CC1)CN(c1cnc4c(n1)NC(=O)CO4)C(=O)O3)C2 (centres unmarked) [Example 258, 6-[8-[(4-Fluoro-1-methyl-6,7-dihydro-5H-cyclopenta[c]pyridin-6-yl)methyl]-2-oxo-1-oxa-3,8-diazaspiro[4.5]decan-3-yl]-4H-pyrazino[2,3-b][1,4]oxazin-3-one]",221
4,"NC1c2cccc(F)c2CC1CNCCC1CN(c2ccc3c(n2)NC(=O)CS3)C(=O)O1 (racemic) [Example 165, 5-[2-[(rac-1,2-trans-1-amino-4-fluoro-2,3-dihydro-1H-inden-2-yl)methylamino]ethyl]-3-(3-oxo-4H-pyrido[3,2-b][1,4]thiazin-6-yl)-1,3-oxazolidin-2-one; formic acid]",< 97.7
5,"Cc1nc(Cl)c2c(c1F)CC(CNCCC1CN(c3cnc4c(n3)NC(=O)CO4)C(=O)O1)C2 (centres unmarked) [Example 431, 6-[5-[2-[(1-chloro-4-fluoro-3-methyl-6,7-dihydro-5H-cyclopenta[o]pyridin-6-yl)methylamino]ethyl]-2-oxo-1,3-oxazolidin-3-yl]-4H-pyrazino[2,3-b][1,4]oxazin-3-one; formic acid]",< 97.7
6,"NC1(CNCCC2CN(c3ccc4c(n3)NC(=O)CO4)C(=O)O2)Cc2cccc(Cl)c2C1 (centres unmarked) [Example 240, 6-[5-[2-[(2-Amino-4-chloro-1,3-dihydroinden-2-yl)methylamino]ethyl]-2-oxo-1,3-oxazolidin-3-yl]-4H-pyrido[3,2-b][1,4]oxazin-3-one; formic acid]",278
7,"O=C1COc2ccc(N3CC(CCNCC4Cc5c(ccnc5Cl)C4O)OC3=O)nc2N1 (racemic) [Example 41, 6-[2-oxo-5-[2-[[rac-(5,6-trans)-1-chloro-5-hydroxy-6,7-dihydro-5H-cyclopenta[c]pyridin-6-yl]methylamino]ethyl]-1,3-oxazolidin-3-yl]-4H-pyrido[3,2-b][1,4]oxazin-3-one; formic acid]",728
8,"CS(=O)(=O)NCCOc1cc(C#N)c2c(c1)CC(CNCCC1CN(c3ccc4c(n3)NC(=O)CO4)C(=O)O1)C2 (centres unmarked) [Example 115, N-[2-[[7-cyano-2-[[2-[2-oxo-3-(3-oxo-4H-pyrido[3,2-b][1,4]oxazin-6-yl)-1,3-oxazolidin-5-yl]ethylamino]methyl]-2,3-dihydro-1H-inden-5-yl]oxy]ethyl]methanesulfonamide]",261
9,"N#Cc1cc(OCC(N)=O)cc2c1CC(CNCCC1CN(c3cnc4c(n3)NC(=O)CO4)C(=O)O1)C2 (centres unmarked) [Example 414, 2-[[7-cyano-2-[[2-[2-oxo-3-(3-oxo-4H-pyrazino[2,3-b][1,4]oxazin-6-yl)-1,3-oxazolidin-5-yl]ethylamino]methyl]-2,3-dihydro-1H-inden-5-yl]oxy]acetamide]",127
10,"NC1(COc2cc(Cl)c3c(c2)CC(CNCCC2CN(c4ccc5c(n4)NC(=O)CO5)C(=O)O2)C3)CC1 (centres unmarked) [Example 178, 6-[5-[2-[[6-[(1-aminocyclopropyl)methoxy]-4-chloro-2,3-dihydro-1H-inden-2-yl]methylamino]ethyl]-2-oxo-1,3-oxazolidin-3-yl]-4H-pyrido[3,2-b][1,4]oxazin-3-one]",< 97.7
11,"Cc1ncc(Cl)c2c1CC(CNCCC1CN(c3ccc4c(n3)NC(=O)CO4)C(=O)O1)C2 (centres unmarked) [Example 55, 6-[5-[2-[(4-chloro-1-methyl-6,7-dihydro-5H-cyclopenta[c]pyridin-6-yl)methylamino]ethyl]-2-oxo-1,3-oxazolidin-3-yl]-4H-pyrido[3,2-b][1,4]oxazin-3-one; formic acid]",< 97.7
12,"NC1c2cccc(Cl)c2CC1CCNCC1CN(c2ccc3c(n2)NC(=O)CO3)C(=O)O1 (racemic) [Example 194, 6-[2-oxo-5-[[2-[rac-1,2-trans-1-amino-4-chloro-2,3-dihydro-1H-inden-2-yl]ethylamino]methyl]-1,3-oxazolidin-3-yl]-4H-pyrido[3,2-b][1,4]oxazin-3-one]",< 97.7
13,"NC1c2cccc(F)c2CC1CNCCC1CN(c2cnc3c(n2)NC(=O)CO3)C(=O)O1 (racemic) [Example 164, 6-[5-[2-[(rac-1,2-trans-1-amino-4-fluoro-2,3-dihydro-1H-inden-2-yl)methylamino]ethyl]-2-oxo-1,3-oxazolidin-3-yl]-4H-pyrazino[2,3-b][1,4]oxazin-3-one; formic acid]",< 97.7
14,"O=C1COc2ncc(N3CC(CCNCC4Cc5cc(OCCn6cncn6)cc(F)c5C4)OC3=O)nc2N1 (centres unmarked) [Example 296, 6-[5-[2-[[4-fluoro-6-[2-(l,2,4-triazol-1-yl)ethoxy]-2,3-dihydro-1H-inden-2-yl]methylamino]ethyl]-2-oxo-1,3-oxazolidin-3-yl]-4H-pyrazino[2,3-b][1,4]oxazin-3-one; formic acid]",381
15,"N#Cc1cccc2c1CC(CNCCC1OC(=O)N(c3ccc4c(n3)NC(=O)CO4)C1CN)C2 (racemic) [Example 148, 2-[[2-[rac-4,5-cis-4-(aminomethyl)-2-oxo-3-(3-oxo-4H-pyrido[3,2-b][1,4]oxazin-6-yl)-1,3-oxazolidin-5-yl]ethylamino]methyl]-2,3-dihydro-1H-indene-4-carbonitrile; formic acid]",598
16,"COc1cnc(Cl)c2c1CC(CNCCC1CN(c3cnc4c(n3)NC(=O)CO4)C(=O)O1)C2 (centres unmarked) [Example 58, 6-[5-[2-[(1-chloro-4-methoxy-6,7-dihydro-5H-cyclopenta[c]pyridin-6-yl)methylamino]ethyl]-2-oxo-1,3-oxazolidin-3-yl]-4H-pyrazino[2,3-b][1,4]oxazin-3-one; formic acid]",190
17,"O=C1COc2ccc(N3CC(CCNCC4(O)Cc5cccc(Cl)c5C4)OC3=O)nc2N1 (centres unmarked) [Example 232, 6-[5-[2-[(4-Chloro-2-hydroxy-1,3-dihydroinden-2-yl)methylamino]ethyl]-2-oxo-1,3-oxazolidin-3-yl]-4H-pyrido[3,2-b][1,4]oxazin-3-one; formic acid]",495

# Other lines, results leading:
row,IC50 [nM],Compound
1,< 97.7,"N#Cc1cc(OCc2cn[nH]c2)cc2c1CC(CNCCC1CN(c3cnc4c(n3)NC(=O)CO4)C(=O)O1)C2 (centres unmarked) [Example 405, 2-[[2-[2-oxo-3-(3-oxo-4H-pyrazino[2,3-b][1,4]oxazin-6-yl)-1,3-oxazolidin-5-yl]ethylamino]methyl]-6-(1H-pyrazol-4-ylmethoxy)-2,3-dihydro-1H-indene-4-carbonitrile; formic acid]"
2,< 97.7,"NC(=O)COc1cc(F)c2c(c1F)CC(CNCCC1CN(c3cnc4c(n3)NC(=O)CO4)C(=O)O1)C2 (centres unmarked) [Example 312, 2-[[4,7-difluoro-2-[[2-[2-oxo-3-(3-oxo-4H-pyrazino[2,3-b][1,4]oxazin-6-yl)-1,3-oxazolidin-5-yl]ethylamino]methyl]-2,3-dihydro-1H-inden-5-yl]oxy]acetamide]"
3,547,"CCOC(=O)c1cn(CC)c2c3c(c(F)cc2c1=O)CC(CNCCC1CN(c2ccc4c(n2)NC(=O)CO4)C(=O)O1)C3 (centres unmarked) [Example 225, ethyl 1-ethyl-6-fluoro-4-oxo-8-[[2-[2-oxo-3-(3-oxo-4H-pyrido[3,2-b][1,4]oxazin-6-yl)-1,3-oxazolidin-5-yl]ethylamino]methyl]-8,9-dihydro-7H-cyclopenta[h]quinoline-3-carboxylate]"
4,167,"O=C1COc2ccc(N3CC(CCCNC4Cc5cccc(F)c5C4)OC3=O)nc2N1 (centres unmarked) [Example 8, 6-[5-[3-[(4-fluoro-2,3-dihydro-1H-inden-2-yl)amino]propyl]-2-oxo-1,3-oxazolidin-3-yl]-4H-pyrido[3,2-b][1,4]oxazin-3-one; formic acid]"
5,942,"N#Cc1cccc2c1CC(CN(CCN)CCC1CN(c3ccc4c(n3)NC(=O)CO4)C(=O)O1)C2 (centres unmarked) [Example 233, 2-[[2-Aminoethyl-[2-[2-oxo-3-(3-oxo-4H-pyrido[3,2-b][1,4]oxazin-6-yl)-1,3-oxazolidin-5-yl]ethyl]amino]methyl]-2,3-dihydro-1H-indene-4-carbonitrile; formic acid]"
6,< 97.7,"N#Cc1cccc2c1CC(CN1CCC3(CC1)CN(c1ccc4c(n1)NC(=O)CO4)C(=O)O3)C2 (centres unmarked) [Example 28, 2-[ [2-oxo-3-(3-oxo-4H-pyrido[3,2-b] [1,4]oxazin-6-yl)-1-oxa-3,8-diazaspiro[4.5]decan-8-yl]methyl]-2,3-dihydro-1H-indene-4-carbonitrile]"
7,138,"Cc1ncc(F)c2c1CC(CCN1CC3(C1)CN(c1cnc4c(n1)NC(=O)CO4)C(=O)O3)C2 (centres unmarked) [Example 326, 6-[2-[2-(4-fluoro-1-methyl-6,7-dihydro-5H-cyclopenta[c]pyridin-6-yl)ethyl]-6-oxo-5-oxa-2,7-diazaspiro[3.4]octan-7-yl]-4H-pyrazino[2,3-b][1,4]oxazin-3-one]"
8,99.5,"Cc1nc(OCCNC2CC2)c(C)c2c1CC(CNCCC1CN(c3ccc4c(n3)NC(=O)CO4)C(=O)O1)C2 (centres unmarked) [Example 189, 6-[5-[2-[[3-[2-(cyclopropylamino)ethoxy]-1,4-dimethyl-6,7-dihydro-5H-cyclopenta[c]pyridin-6-yl]methylamino]ethyl]-2-oxo-1,3-oxazolidin-3-yl]-4H-pyrido[3,2-b][1,4]oxazin-3-one]"
9,< 97.7,"NC1(CCNCC2CN(c3ccc4c(n3)NC(=O)CO4)C(=O)O2)Cc2cccc(Cl)c2C1 (centres unmarked) [Example 142, 6-[5-[[2-(2-amino-4-chloro-1,3-dihydroinden-2-yl)ethylamino]methyl]-2-oxo-1,3-oxazolidin-3-yl]-4H-pyrido[3,2-b][1,4]oxazin-3-one; formic acid]"
